Experimental findings from ChEMBL document CHEMBL1154313, “Synthesis, antiproliferative, and pharmacokinetic properties of 3- and 17-double-modified analogs of 2-methoxyestradiol” (Bioorg Med Chem Lett, 2009) are described below.

The structures appear in SMILES notation. Active and inactive are the calls of the source. No cut-off for these calls is given here.

Series [1] deals with MDA-MB-231. The experiment in a line: Antiproliferative activity against human MDA-MB-231 cells after 48 hrs by WST1 assay. Conditions: MDA-MB-231, 48 h. It is filed as functional, cell-based.
The test system of series [2] is HUVEC. The experiment in a line: Antiangiogenic activity against HUVEC assessed as growth inhibition after 48 hrs by WST1 assay. It is filed as functional, cell-based. Particulars: Homo sapiens. In general terms: Formazan colour is commonly taken as a measure of viable cells.
For a further series, the system named is MCF7. The experiment in a line: Antiproliferative activity against human MCF7 cells after 48 hrs by WST1 assay. It counts as functional, cell-based.
Series [3] can be described thus: Cmax in CD1 mouse at 45 mg/m'2 of body surface, po administered as single dose. It is filed as ADME, organism-based. On the set-up: route oral. Conditions: in vivo.
Series [4] can be described thus: Half life in CD1 mouse at 45 mg/m'2 of body surface, po administered as single dose. It counts as ADME, organism-based. Particulars: in vivo.
A short description of series [5]: AUC (0 to infinity) in CD1 mouse at 45 mg/m'2 of body surface, po administered as single dose. It counts as ADME, organism-based. Also noted: time infinity, route oral. Particulars: plasma.
Series [6] has as its system MDA-MB-231. The experiment in a line: Ratio of 2ME2 IC50 to compound IC50 for human MDA-MB-231 cells. It counts as functional.
The subject of series [7] is HUVEC. The experiment in a line: Ratio of 2ME2 IC50 to compound IC50 for antiangiogenic activity against HUVEC. It is filed as functional, Homo sapiens.
The test system of series [8] is MDA-MB-231. The experiment in a line: Ratio of compound IC50 to 2ME2 IC50 for human MDA-MB-231 cells. It counts as functional.
Series [9] relates to HUVEC. The experiment in a line: Ratio of compound IC50 to 2ME2 IC50 for antiangiogenic activity against HUVEC. It counts as functional, Homo sapiens.
Series [10] deals with Mus musculus. The experiment in a line: Ratio of compound Cmax to 2ME2 Cmax in CD1 mouse at 45 mg/m'2 of body surface, po administered as single dose. It counts as ADME, organism-based. Conditions: in vivo.
Series [11] has as its system Mus musculus. The experiment in a line: Ratio of compound AUC (0 to infinity) to 2ME2 AUC (0 to infinity) in CD1 mouse at 45 mg/m'2 of body surface, po administered as single dose. It counts as ADME, organism-based. Particulars: in vivo.

For orientation: IC50 means the concentration that gives 50% inhibition. As to `COC(=O)Oc1cc2c(cc1OC)[C@H]1CC[C@]3(C)C(=O)CC[C@H]3[C@@H]1CC2`, the figures for the IC50 in the series with MDA-MB-231 [1] and in the series on HUVEC [2] were 25000 nM and 32900 nM, respectively. Moreover, the outcome in the series with MCF7 was Active.
The Cmax is the peak of the concentration-time curve. A word on the half-life: it is the time in which the quantity being followed falls by half. Lower therefore signals fast loss. As usually defined, the AUC(0-inf) is total exposure, with the tail of the curve extrapolated. Read a high AUC(0-inf) as high exposure. Compound `C=C1CC[C@H]2[C@@H]3CCc4cc(C(N)=O)c(OC)cc4[C@H]3CC[C@]12C` displayed a Cmax in series [3] of 334 nM. The compound also gave a half-life in series [4] of 4.8 h. Further, the area under the curve AUC(0-inf) in series [5] turned out to be 3.2 µM·h. Also, the values for the IC50 in the series on MDA-MB-231 [1] and with HUVEC [2] were 120 nM and 250 nM, respectively. Besides, the “Ratio IC50” value in the series on MDA-MB-231 [6] stood at 6; in the series on HUVEC [7], 5. Besides, the outcome in the series with MCF7 was Active.
In turn, `COc1cc2c(cc1O)CC[C@@H]1[C@@H]2CC[C@]2(C)[C@@H](O)CC[C@@H]12` [2-METHOXYESTRADIOL] displayed a maximum concentration (Cmax) in series [3] of 294 nM. This compound showed a half-life in [4] of 0.3 h. In series [5], this compound had an AUC(0-inf) of 0.142 µM·h. Also, the values for the 50% inhibitory concentration (IC50) in the series with MDA-MB-231 [1] and in the series with HUVEC [2] were 790 nM and 680 nM, respectively. For the same compound, the outcome in the series on MCF7 was Active.
For `C=C1CC[C@H]2[C@@H]3CCc4cc(NC=O)c(OC)cc4[C@H]3CC[C@]12C`, the half-maximal inhibitory concentration (IC50) in the series on MDA-MB-231 [1] worked out at 300 nM; in the series on HUVEC [2], 220 nM. Further, the “Ratio IC50” value amounted to 2 in the series with MDA-MB-231 [6] and 3 in the series with HUVEC [7]. Also, the outcome in the series with MCF7 was Active.
For the compound `COc1cc2c(cc1NC=O)CC[C@@H]1[C@@H]2CC[C@]2(C)CCC[C@@H]12`, the IC50 with MDA-MB-231 [1] was determined as 8290 nM; with HUVEC [2], 5800 nM. Also, the “Ratio IC50” value stood at 10 in the series with MDA-MB-231 [8] and 8 with HUVEC [9]. In addition, in the series with MCF7, the outcome was Active.
Consider `COc1cc2c(cc1N)CC[C@@H]1[C@@H]2CC[C@]2(C)CCC[C@@H]12`, for which the half-inhibitory concentration (IC50) with MDA-MB-231 [1] was 7380 nM; with HUVEC [2] it was 4720 nM. Moreover, in the series with MCF7, the result was Active.
Consider `COc1cc2c(cc1C(N)=O)CC[C@@H]1[C@@H]2CC[C@]2(C)C(=O)CC[C@@H]12`, for which the figures for the half-maximal inhibitory concentration (IC50) with MDA-MB-231 [1] and in the series on HUVEC [2] were 2200 nM and 5460 nM, respectively. For the same compound, the “Ratio IC50” value in the series on HUVEC [9] was found to be 8. For the same compound, the result in the series on MCF7 was Active.
Consider `COc1cc2c(cc1N)CC[C@@H]1[C@@H]2CC[C@]2(C)[C@@H](C)CC[C@@H]12`, for which the IC50 in the series with MDA-MB-231 [1] came to 7310 nM; in the series with HUVEC [2], 2650 nM. Also, the result in the series on MCF7 was Active.
Take `COc1cc2c(cc1NC=O)CC[C@@H]1[C@@H]2CC[C@]2(C)C(=O)CC[C@@H]12`: the IC50 with MDA-MB-231 [1] amounted to 1220 nM; with HUVEC [2], 530 nM. For the same compound, the “Ratio IC50” value is recorded as 10 with MDA-MB-231 [8] and 3 in the series with HUVEC [7]. Besides, the result in the series on MCF7 was Active.
Turning to `COc1cc2c(cc1C(N)=O)CC[C@@H]1[C@@H]2CC[C@]2(C)C=CC[C@@H]12`, the concentration in [3] peaked (Cmax) at 1430 nM. Also, the Ratio with Mus musculus [10] is recorded as 5; in the series with Mus musculus [11] it was 23. Further, the half-life in [4] was 2.1 h. In [5], this compound gave an area under the curve AUC(0-inf) of 3.36 µM·h. For the same compound, the 50% inhibitory concentration (IC50) in the series with MDA-MB-231 [1] stood at 200 nM; in the series with HUVEC [2], 130 nM. Further, the “Ratio IC50” value with MDA-MB-231 [6] came to 6; with HUVEC [7], 5. Further, in the series on MCF7, the result was Active.
For `COc1cc2c(cc1C(N)=O)CC[C@@H]1[C@@H]2CC[C@]2(C)CCC[C@@H]12`, the peak level in [3] (Cmax) was 504 nM. This compound also gave a half-life in series [4] of 1.1 h. The compound further showed an AUC(0-inf) in series [5] of 2.53 µM·h. The values for the IC50 with MDA-MB-231 [1] and with HUVEC [2] were 1860 nM and 1190 nM, respectively. The “Ratio IC50” value turned out to be 3 in the series with MDA-MB-231 [8] and 8 in the series on HUVEC [9]. In addition, the outcome with MCF7 was Active.
For the compound `C=Cc1cc2c(cc1OC)[C@H]1CC[C@]3(C)CCC[C@H]3[C@@H]1CC2`, the IC50 in the series on MDA-MB-231 [1] came out at 1860 nM; in the series on HUVEC [2], 580 nM. Moreover, in the series on MCF7, the result was Active.
With `COc1cc2c(cc1NC(N)=O)CC[C@@H]1[C@@H]2CC[C@]2(C)C(=O)CC[C@@H]12`, the IC50 in the series with MDA-MB-231 [1] was 710 nM; in the series with HUVEC [2], 610 nM. In the series on MCF7, the result was Active.
Taken in the same sequence, the figures for `C=C1CC[C@H]2[C@@H]3CCc4cc(N)c(OC)cc4[C@H]3CC[C@]12C` were 2110 nM, 1000 nM and “Active”.
Taken in the same sequence, the figures for `COC(=O)Nc1cc2c(cc1OC)[C@H]1CC[C@]3(C)C(=O)CC[C@H]3[C@@H]1CC2` were 5600 nM, 8220 nM and “Active”.
Taken in the same sequence, the figures for `COc1cc2c(cc1NC#N)CC[C@@H]1[C@@H]2CC[C@]2(C)C(=O)CC[C@@H]12` were 200 nM, 250 nM and “Active”.
Take `C/C=C1\CC[C@H]2[C@@H]3CCc4cc(NC=O)c(OC)cc4[C@H]3CC[C@]12C`: the 50% inhibitory concentration (IC50) in the series on MDA-MB-231 [1] amounted to 560 nM; in the series with HUVEC [2], 580 nM. In addition, the “Ratio IC50” value in the series on MDA-MB-231 [6] is 2; in the series with HUVEC [7], 3. Further, the result with MCF7 was Active.
For `COc1cc2c(cc1NC=O)CC[C@@H]1[C@@H]2CC[C@]2(C)[C@@H](C)CC[C@@H]12` the same measures were 610 nM, 590 nM, 2, 3 and “Active”.
For the compound `CCNC(=O)c1cc2c(cc1OC)[C@H]1CC[C@]3(C)CCC[C@H]3[C@@H]1CC2`, the results for the half-maximal inhibitory concentration (IC50) with MDA-MB-231 [1] and with HUVEC [2] were 53000 nM and 38000 nM, respectively. Moreover, in the series on MCF7, the result was Active.
For `COc1cc2c(cc1N)CC[C@@H]1[C@@H]2CC[C@]2(C)C(=O)CC[C@@H]12` the same measures were 46900 nM, 23400 nM and “Active”.
As for `COc1cc2c(cc1NC(C)=O)CC[C@@H]1[C@@H]2CC[C@]2(C)CCC[C@@H]12`, the half-maximal inhibitory concentration (IC50) in the series with MDA-MB-231 [1] came out at 9250 nM; in the series on HUVEC [2], 1680 nM. In addition, the outcome in the series on MCF7 was Active.
Turning to `C/C=C1\CC[C@H]2[C@@H]3CCc4cc(N)c(OC)cc4[C@H]3CC[C@]12C`, the figures for the IC50 with MDA-MB-231 [1] and in the series with HUVEC [2] were 1940 nM and 720 nM, respectively. Also, the result in the series on MCF7 was Active.
